Assay results: US20250352494A1, “TRANSDERMAL DELIVERY DEVICE FOR PEPTIDE DELIVERY AND METHODS OF USE” (PassPort Technologies, Inc., priority 2022, published 2025)
Ends that are not written are not given here.

Legend:
in vivo [1] = experiment: in vivo
Source text: (§1) Animal Studies in Mice. […] The hair was removed prior to the experiments. […] Exp. 21 (2008).
IgG was purified with antigen-coupled resin and conjugated to biotin. Horseradish peroxidase-conjugated streptavidine was from Amersham/GE Healthcare (Cat #RPN1051, Little Chalfont, UK), and the tetramethylbenzidine (TMB) microwell peroxidase substrate system was from SeraCare Life Sciences Inc. (Cat #5120-0075, Milford, MA, USA). The mice were anesthetized by using 1% isoflurane, and CSF was collected from the cisterna magna in mice as described above, and then mice were sacrificed.
Dis. (2014) 39, 861-870, p3-Alcβ37- and p3-Alcβ40-specific sELISA systems, described in Hata et al “Decrease in p3-Alcβ37 and p3-Alcβ40, products of Alcadeinβ generated by γ-secretase cleavages, in aged monkeys and patients with Alzheimer's disease” Alzheimers Dement TRCI (2019) 5, 740-750.
The next day, the non-binding antibody was removed with wash buffer (0.05% Tween-20 in PBS). The plasma and CSF were diluted 200-fold and 20-fold with EIA buffer (1% BSA, 0.05% Tween-20), respectively. The sample solution was added to 96 well plates and stayed overnight at 4° C. The next day, after washing with wash buffer, purified biotinylated IgG dissolved in PBS was added to […] in each well, and the mixture was kept overnight at 4° C. The next day, the unreacted antibody was washed with wash buffer, streptavidin-HRP (1/5000 in PBS) was added, and the reaction was carried out at 4° C. for 6 to 8 hours. After washing with Wash buffer, TMB color-developing substrate was added, and the mixture was reacted at room temperature for 30 minutes under light-protection. The color development was stopped by adding 1 N H2SO4, and the samples were measured by a plate reader at 450 nm.

[2] = rats; reducing sugar formulation (Table 22); 24 hours after application; without microporation
Experimental: Animal Studies in Rats. […] In vivo PK studies were performed in CD rats (Charles River Laboratories) according to IACUC-approved Animal Protocols. Each dosing formulation was prepared prior to the experiments. The patch was manufactured according to dry patch manufacturing procedure. The animals for transdermal applications were shaved 1 day before the dosing date. […] Then, the patch was placed to cover the porated area for 1 day or a designated duration. After the last blood sampling, the patch was collected, and the application site was wiped by paper or cotton to recover the remaining drug on the skin. The blood samples were collected from the tail vein and transferred into K2-EDTA tube at the designated sampling time. The samples were centrifuged at 4° C., and then plasma samples were obtained. All samples were stored at −80° C. freezer until bioassay.

[3] = p3-Alcβ9-19 in mouse plasma (sELISA) after transdermal microporation patch or subcutaneous injection; type: in vivo, wild-type mice; details: mice plasma
Source text: as §1
sELISA method for p3-Alcβ9-19 Analysis.

in vivo [4] = details: for bioavailability: 2 mg; for PK Profile: Table 40
Experimental: Animal Studies in Rats. […] In vivo PK studies were performed in CD rats (Charles River Laboratories) according to IACUC-approved Animal Protocols. Each dosing formulation was prepared prior to the experiments. The patch was manufactured according to dry patch manufacturing procedure. The animals for transdermal applications were shaved 1 day before the dosing date. The transdermal microporation was applied using the Applicator and Porator. Then, the patch was placed to cover the porated area for 1 day or a designated duration. After the last blood sampling, the patch was collected, and the application site was wiped by paper or cotton to recover the remaining drug on the skin. The blood samples were collected from the tail vein and transferred into K2-EDTA tube at the designated sampling time. The samples were centrifuged at 4° C., and then plasma samples were obtained. All samples were stored at −80° C. freezer until bioassay.
The plasma samples were stayed at room temperature for 30 minutes. The plasma (50 μL) was transferred into a 2 mL Eppendorf tube (Protein LoBind), then add 50 μL of Acetonitrile/DMSO (4:1, v/v), and vortex the tube for a couple of seconds. The samples were centrifuged for 15 minutes at 3700 rpm, 4° C. The 150 μL of mobile phase A (0.1% formic acid in water) were put into a new tube, then 50 μL of the supernatant were transferred into the tube and the samples were vortexed for 5 minutes. The supernatant was pulled out and the solution was filtered through a 0.20 μm PTFE membrane into an autosampler vial (LCMSMS).

[5] = mouse, cerebrospinal fluid, sc, 30 ug
[6] = mouse, sc, 30 ug, subcutaneous injection 30 μg

HRGHQPPPEMA [p3-Alcβ9-19]
BA (relative bioavailability) vs SC (30 μg/body) (in vivo [1]; mice CSF, subcutaneous injection 30 μg (reference)): 100%
AUC(0-t) (in vivo [1]; [5]): 5.01 ng·h/mL
Cmax (in vivo [1]; [5]): 14.9 ± 10.7 ng/mL
Tmax (in vivo [1]; [5]): 15 min
p3-Alcβ9-19 recovered (drug residual) [2]: about 100%
BA (relative bioavailability) vs SC (30 μg/body) ([3]; subcutaneous injection 30 μg (reference)): 100%
Cmax [3, 6]: 25.5 ± 12.5 ng/mL
Tmax [3, 6]: 18.8 min
AUC(0-t) ([3]; mouse, sc, 30 ug, subcutaneous injection 30 μg, read-out: AUC0-360 (converted)): 9.84 ng·h/mL
bioavailability (in vivo [4]; CD, rat, plasma, iv): 100%
bioavailability (in vivo [4]; CD, rat, plasma, oral): 0%
bioavailability (in vivo [4]; CD, rat, plasma, other: nasal): 0%
bioavailability (in vivo [4]; CD, rat, plasma, other: passive transdermal): 0%
Tmax (in vivo [4]; CD, rat, plasma, other: transdermal microporation): ~60 min
bioavailability (in vivo [4]; CD, rat, plasma, subcutaneous): 120 to 275%
aBA (absolute bioavailability) vs IV (2 mg/body) (in vivo [4]; Table 33, optimized formulations for immediate delivery, rats, 400 density, 4 mJ/filament): about 2000%
PK Profile (in vivo [4]; Intravenous injection): Bolus absorption
PK Profile (in vivo [4]; Nasal): No absorption
PK Profile (in vivo [4]; Oral): No absorption
PK Profile (in vivo [4]; Passive Transdermal): No absorption
PK Profile (in vivo [4]; Subcutaneous injection): Bolus absorption
Absorption (in vivo [4]; rats, 5 mg/head, oral, nasal, or passive transdermal routes): No absorption
Time by which blood concentrations disappeared (in vivo [4]; rats, SC injection): ≤ 1 h
Relationship between p3-Alcβ9-19 dose and AUC, FIG. 16 (in vivo [4]; rats, immediate delivery, up to 50 mg of p3-Alcβ9-19 (tested dose)): liner dose-dependency
PK profiles (in vivo [4]; rats, intravenous (IV) and subcutaneous (SC) injections): rapid absorption and quick elimination
AUC and Cmax versus p3-Alcβ9-19 dose, FIG. 19A/19B (in vivo [4]; rats, optimized patch): increased p3-Alcβ9-19 dose-dependently
Relationship between p3-Alcβ9-19 dose and AUC, FIG. 17 (in vivo [4]; rats, sustained delivery, up to 25 mg of p3-Alcβ9-19 (tested dose)): liner dose-dependency
